Experimental data from ChEMBL document CHEMBL1201862, “PubChem BioAssay data set” (2004).
Activity calls are given as the source filed them.

How the values were obtained:
[1] = Luminescence-based cell-based high throughput dose response assay to identify activators of the DAF-12 from the parasite S. stercoralis (ssDAF-12).; assay type: functional
[2] = molecular target: T1, Heat shock factor protein 1 (Mus musculus, UniProt P38532); assay: HSF1 potentiators in luciferase reporter cells, confirmation, cell-based, NIH3T3, luminescence, dose retest (AID 435004); assay type: functional;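 also: stress induced by proteasome inhibitor MG132 added 30 min after compound; luciferase reporter driven by HSF1 response element in NIH3T3 cells; actives raise luminescence as potentiators of the MG132 stress response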
T1 sequence (P38532 whole entry): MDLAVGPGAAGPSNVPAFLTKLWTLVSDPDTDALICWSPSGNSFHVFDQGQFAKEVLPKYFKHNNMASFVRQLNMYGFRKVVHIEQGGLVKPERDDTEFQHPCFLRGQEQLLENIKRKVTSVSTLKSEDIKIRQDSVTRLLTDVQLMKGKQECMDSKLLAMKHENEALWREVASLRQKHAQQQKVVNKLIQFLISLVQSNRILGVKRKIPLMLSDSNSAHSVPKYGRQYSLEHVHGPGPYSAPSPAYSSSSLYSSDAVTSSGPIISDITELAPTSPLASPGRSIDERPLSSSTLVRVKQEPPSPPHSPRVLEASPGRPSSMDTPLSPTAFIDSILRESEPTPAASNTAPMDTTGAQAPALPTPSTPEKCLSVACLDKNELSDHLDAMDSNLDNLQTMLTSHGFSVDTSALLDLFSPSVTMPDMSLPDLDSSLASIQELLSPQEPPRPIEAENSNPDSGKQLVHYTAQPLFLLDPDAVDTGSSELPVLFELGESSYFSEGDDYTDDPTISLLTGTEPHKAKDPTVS

[3] = inhibitors of intracellular T. cruzi replication, confirmation, NIH3T3 host cells, beta-gal luminescence (AID 2044); assay type: functional, cell-based;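 also: intracellular parasites grown in NIH/3T3 mouse fibroblasts as host cells; luminescent beta-galactosidase reporter signal from transgenic T. cruzi replicating inside host cells; inhibitors lower the luminescence signal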
cells [4] = assay type: functional, cell-based
[5] = molecular target: T2, Microphthalmia-associated transcription factor (Homo sapiens, UniProt O75030); assay: TRPM1 promoter luciferase signal decrease, dose response, MITF inhibitor project, cell-based, SK-MEL-5, cherry-picked, set 3 (AID 493073); assay type: functional
T2 sequence (O75030 whole entry): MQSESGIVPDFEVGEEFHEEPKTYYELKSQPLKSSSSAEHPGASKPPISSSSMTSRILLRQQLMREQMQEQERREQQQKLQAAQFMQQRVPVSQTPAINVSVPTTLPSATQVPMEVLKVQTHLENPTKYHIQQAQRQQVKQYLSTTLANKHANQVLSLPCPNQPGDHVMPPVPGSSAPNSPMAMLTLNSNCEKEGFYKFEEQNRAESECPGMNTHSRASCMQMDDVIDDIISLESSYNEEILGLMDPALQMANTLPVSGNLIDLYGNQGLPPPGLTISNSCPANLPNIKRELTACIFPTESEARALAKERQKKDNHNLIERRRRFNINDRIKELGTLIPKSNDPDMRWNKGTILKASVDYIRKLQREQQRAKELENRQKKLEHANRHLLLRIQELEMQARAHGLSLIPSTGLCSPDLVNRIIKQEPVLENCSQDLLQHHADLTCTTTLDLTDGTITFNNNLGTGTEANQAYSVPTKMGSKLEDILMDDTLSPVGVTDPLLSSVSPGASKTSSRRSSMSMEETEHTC

[6] = Counterscreen for activators of the function of SWI/SNF related, matrix associated, actin dependent regulator of chromatin, subfamily a, member 2 (SMARCA2, BRM): Luminescence-based cell-based high throughput dose response assay to identify non-selective compounds using the VP16 reporter assay.; assay type: functional
INS1 = assay: beta cell apoptosis inhibitors, cytokine rescue, dose response, luminescence, retest (AID 449756); assay type: functional, cell-based; settings: Rattus norvegicus;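 also: cell death triggered by IL-1 beta plus TNF-alpha plus IFN-gamma mixture; protective hits raise ATP signal compared with cytokine alone wells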
cells [7] = assay type: functional, cell-based; remark: listed apart in the source
[8] = molecular target: SWI/SNF-related matrix-associated actin-dependent regulator of chromatin subfamily A member 2 (Homo sapiens, UniProt P51531); assay: Luminescence-based cell-based high throughput dose response assay to identify activators of the function of SWI/SNF related, matrix associated, actin dependent regulator of chromatin, subfamily a, member 2 (SMARCA2, BRM).; assay type: functional
SWI/SNF-related matrix-associated actin-dependent regulator of chromatin subfamily A member 2, sequence (P51531 whole entry): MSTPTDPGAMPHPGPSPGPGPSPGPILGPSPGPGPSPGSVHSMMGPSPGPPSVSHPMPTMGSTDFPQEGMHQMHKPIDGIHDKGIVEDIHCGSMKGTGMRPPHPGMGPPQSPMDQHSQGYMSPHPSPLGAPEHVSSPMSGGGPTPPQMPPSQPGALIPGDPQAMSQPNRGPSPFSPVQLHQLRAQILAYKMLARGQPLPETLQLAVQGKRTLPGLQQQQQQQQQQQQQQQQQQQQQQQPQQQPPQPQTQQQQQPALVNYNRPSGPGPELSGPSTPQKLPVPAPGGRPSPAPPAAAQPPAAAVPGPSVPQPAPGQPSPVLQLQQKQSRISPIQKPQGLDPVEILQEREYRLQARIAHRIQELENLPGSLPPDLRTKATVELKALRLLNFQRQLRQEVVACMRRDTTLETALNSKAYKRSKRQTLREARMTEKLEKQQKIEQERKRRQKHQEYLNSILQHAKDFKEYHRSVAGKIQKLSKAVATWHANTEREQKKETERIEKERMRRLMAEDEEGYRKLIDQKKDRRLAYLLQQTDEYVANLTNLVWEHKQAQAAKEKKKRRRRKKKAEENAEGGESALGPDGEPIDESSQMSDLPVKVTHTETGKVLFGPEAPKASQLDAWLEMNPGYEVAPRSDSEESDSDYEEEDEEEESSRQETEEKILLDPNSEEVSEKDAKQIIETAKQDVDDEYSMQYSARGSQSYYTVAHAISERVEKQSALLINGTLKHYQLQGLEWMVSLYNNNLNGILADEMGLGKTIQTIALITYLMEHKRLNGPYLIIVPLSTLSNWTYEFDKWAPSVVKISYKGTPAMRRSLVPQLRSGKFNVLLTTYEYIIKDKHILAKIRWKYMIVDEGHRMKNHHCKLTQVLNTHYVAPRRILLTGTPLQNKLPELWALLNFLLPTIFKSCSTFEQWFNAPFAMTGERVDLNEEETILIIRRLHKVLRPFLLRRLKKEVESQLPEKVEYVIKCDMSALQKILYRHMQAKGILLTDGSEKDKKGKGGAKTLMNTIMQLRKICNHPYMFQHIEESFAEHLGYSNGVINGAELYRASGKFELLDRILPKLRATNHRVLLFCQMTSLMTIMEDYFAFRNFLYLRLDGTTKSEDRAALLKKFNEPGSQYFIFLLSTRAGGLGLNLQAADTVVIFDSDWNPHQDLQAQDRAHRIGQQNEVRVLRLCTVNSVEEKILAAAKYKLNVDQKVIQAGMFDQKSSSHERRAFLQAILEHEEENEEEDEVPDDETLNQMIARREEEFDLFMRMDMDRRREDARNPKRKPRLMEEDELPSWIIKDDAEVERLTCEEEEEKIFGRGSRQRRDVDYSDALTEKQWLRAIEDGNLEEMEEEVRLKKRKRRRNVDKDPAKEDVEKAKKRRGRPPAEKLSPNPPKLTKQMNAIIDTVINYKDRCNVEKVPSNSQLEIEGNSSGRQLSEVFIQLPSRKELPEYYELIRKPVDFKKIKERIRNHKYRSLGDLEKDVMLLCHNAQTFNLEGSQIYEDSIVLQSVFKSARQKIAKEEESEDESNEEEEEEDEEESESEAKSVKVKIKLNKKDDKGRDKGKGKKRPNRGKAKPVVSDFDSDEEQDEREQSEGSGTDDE

[9] = molecular target: Long-chain-fatty-acid--AMP ligase FadD28 (Mycobacterium tuberculosis, UniProt P9WQ59); assay: Fluorescence polarization aasay to screen for inhibitors that compete for the binding of FadD28 to a bisubstrate Measured in Biochemical System Using Plate Reader - 2147-01_Inhibitor_Dose_CherryPick_Activity.; assay type: functional, Mycobacterium tuberculosis H37Rv
Long-chain-fatty-acid--AMP ligase FadD28, sequence (P9WQ59 whole entry): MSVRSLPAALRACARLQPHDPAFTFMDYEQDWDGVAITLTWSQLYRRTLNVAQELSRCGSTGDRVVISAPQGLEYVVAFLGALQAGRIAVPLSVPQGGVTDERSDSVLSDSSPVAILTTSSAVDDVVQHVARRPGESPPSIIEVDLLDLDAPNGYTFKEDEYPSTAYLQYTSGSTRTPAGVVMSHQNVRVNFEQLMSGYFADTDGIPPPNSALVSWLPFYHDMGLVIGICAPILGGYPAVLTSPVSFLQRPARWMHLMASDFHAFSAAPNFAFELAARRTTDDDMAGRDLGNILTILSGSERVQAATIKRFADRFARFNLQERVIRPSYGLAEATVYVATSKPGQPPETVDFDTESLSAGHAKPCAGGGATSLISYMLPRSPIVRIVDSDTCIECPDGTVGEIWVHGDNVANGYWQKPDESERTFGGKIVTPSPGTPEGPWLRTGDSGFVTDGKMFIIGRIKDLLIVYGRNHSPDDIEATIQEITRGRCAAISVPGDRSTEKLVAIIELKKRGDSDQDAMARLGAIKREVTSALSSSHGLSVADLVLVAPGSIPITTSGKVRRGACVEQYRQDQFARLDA

Estrogen receptor = molecular target: T3, Estrogen receptor (Homo sapiens, UniProt P03372);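 also: potency for inhibiting coactivator peptide recruitment to the receptor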
T3 sequence (P03372 whole entry): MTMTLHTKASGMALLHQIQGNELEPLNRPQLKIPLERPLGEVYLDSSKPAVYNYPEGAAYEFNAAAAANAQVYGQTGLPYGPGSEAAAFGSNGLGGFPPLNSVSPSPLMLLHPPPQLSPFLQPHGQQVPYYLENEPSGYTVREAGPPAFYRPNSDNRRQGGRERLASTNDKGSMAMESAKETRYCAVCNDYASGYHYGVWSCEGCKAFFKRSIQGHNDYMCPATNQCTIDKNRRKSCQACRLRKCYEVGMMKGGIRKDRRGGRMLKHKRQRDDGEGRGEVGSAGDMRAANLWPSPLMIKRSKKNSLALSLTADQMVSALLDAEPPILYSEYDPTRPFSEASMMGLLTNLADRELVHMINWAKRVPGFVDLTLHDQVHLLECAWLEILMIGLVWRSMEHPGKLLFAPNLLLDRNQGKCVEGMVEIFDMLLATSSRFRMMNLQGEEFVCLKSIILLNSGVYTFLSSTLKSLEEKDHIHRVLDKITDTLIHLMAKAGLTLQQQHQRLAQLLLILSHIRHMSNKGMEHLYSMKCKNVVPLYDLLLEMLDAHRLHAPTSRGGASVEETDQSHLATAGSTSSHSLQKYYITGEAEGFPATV

[10] = molecular target: T4, COUP transcription factor 2 (Homo sapiens, UniProt P24468); assay: Luminescence-based cell-based high throughput dose response assay to identify inhibitors of COUP-TFII (NR2F2).; assay type: functional;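 also: HEK293 cells transiently cotransfected with COUP-TFII expression vector and reporter; luciferase reporter luminescence driven by COUP-TFII from the pX2-168 reporter plasmid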
T4 sequence (P24468 whole entry): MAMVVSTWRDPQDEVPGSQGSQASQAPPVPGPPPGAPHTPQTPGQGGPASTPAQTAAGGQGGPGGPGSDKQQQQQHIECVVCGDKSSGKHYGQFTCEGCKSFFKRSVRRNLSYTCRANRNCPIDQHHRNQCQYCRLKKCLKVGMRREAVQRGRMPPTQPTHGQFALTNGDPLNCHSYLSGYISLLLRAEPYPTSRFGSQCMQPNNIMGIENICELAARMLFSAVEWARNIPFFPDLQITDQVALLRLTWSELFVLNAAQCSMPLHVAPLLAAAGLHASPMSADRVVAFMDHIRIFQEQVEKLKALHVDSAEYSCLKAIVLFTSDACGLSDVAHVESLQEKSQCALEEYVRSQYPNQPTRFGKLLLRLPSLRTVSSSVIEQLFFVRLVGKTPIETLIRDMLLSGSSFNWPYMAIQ

cells [11] = assay type: functional, cell-based; settings: HEK-CNG
Galanin receptor type 3 = Galanin receptor type 3 (Homo sapiens, UniProt O60755); assay: Fluorescence-based cell-based primary high throughput dose response assay to identify antagonists of the Galanin Receptor 3 (GalR3).; assay type: functional
Galanin receptor type 3, sequence (O60755 whole entry): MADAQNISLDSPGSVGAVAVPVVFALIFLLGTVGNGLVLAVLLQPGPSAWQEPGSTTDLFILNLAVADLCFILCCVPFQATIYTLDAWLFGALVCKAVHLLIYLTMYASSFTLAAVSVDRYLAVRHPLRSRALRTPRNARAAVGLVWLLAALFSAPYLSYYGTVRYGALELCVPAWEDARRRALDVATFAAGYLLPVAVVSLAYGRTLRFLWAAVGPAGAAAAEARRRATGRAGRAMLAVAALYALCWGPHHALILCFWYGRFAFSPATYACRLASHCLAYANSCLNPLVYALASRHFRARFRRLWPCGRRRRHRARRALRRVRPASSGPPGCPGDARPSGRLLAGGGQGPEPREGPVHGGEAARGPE

[12] = HEK293 cell viability, dose response, counter-screen for EBV LMP1 inhibitor project, dry powder, set 2 (AID 624374); assay type: functional
[13] = molecular target: T5, Rac GTPase-activating protein 1 (Homo sapiens, UniProt Q9H0H5); assay: MgcRacGAP GTPase-activating activity inhibitors, confirmation, biochemical, ADP Hunter fluorescence, primary and confirmatory (AID 624330); assay type: functional
T5 sequence (Q9H0H5 whole entry): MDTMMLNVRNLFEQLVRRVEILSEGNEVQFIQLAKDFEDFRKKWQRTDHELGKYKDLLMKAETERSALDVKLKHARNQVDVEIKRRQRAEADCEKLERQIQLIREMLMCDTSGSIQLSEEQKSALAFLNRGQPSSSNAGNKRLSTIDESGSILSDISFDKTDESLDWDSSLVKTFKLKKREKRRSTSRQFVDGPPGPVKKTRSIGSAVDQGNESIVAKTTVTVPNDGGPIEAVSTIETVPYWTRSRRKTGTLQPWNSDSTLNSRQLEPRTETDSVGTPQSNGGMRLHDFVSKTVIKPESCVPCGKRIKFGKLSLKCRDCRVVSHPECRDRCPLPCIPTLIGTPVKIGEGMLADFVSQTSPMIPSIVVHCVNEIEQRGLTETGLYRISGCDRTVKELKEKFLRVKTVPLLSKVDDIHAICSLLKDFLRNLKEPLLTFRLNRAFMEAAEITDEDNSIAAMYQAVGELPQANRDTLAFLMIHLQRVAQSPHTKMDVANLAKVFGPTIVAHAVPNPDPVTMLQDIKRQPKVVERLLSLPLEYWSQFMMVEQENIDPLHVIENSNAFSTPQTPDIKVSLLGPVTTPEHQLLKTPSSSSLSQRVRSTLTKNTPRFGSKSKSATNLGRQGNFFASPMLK

[14] = HeLa cell cytotoxicity, dose response, cytotoxicity control for MgcRacGAP inhibitor project (AID 624300); assay type: functional
[15] = molecular target: T6, DNA repair protein RAD52 homolog (Homo sapiens, UniProt P43351); assay type: functional, biochemical
T6 sequence (P43351 whole entry): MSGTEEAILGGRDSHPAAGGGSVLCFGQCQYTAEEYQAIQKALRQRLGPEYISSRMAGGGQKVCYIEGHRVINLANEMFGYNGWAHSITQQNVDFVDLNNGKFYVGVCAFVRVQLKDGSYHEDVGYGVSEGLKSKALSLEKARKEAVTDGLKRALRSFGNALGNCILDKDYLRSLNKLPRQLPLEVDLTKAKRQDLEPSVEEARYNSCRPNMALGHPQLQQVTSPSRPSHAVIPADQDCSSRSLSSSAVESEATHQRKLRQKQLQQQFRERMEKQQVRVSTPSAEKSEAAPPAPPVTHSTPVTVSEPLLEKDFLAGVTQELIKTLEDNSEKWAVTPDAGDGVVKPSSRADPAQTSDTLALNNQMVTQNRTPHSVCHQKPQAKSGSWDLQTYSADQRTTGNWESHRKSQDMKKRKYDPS

[16] = cytotoxicity toward NIH3T3 fibroblasts, dose response, counter-screen, cell-based, ATP luminescence, mouse fibroblasts (AID 2010); assay type: functional;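 also: cells exposed to compound for about 90 hours before reading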

With `CCN(CC)CCn1nc2c3c(cccc3c1=O)-c1ccccc1-2` as the molecule, how does the IC50 [1] read?
Its IC50 is > 67.5 µM (inactive).

And the EC50 [2]?
The EC50 was > 260 µM (inactive).

What about the EC50 [3] of the same molecule?
Its EC50 is 1.46 µM (active).

What about the EC50 (cells [4]) of the same molecule?
The EC50 was 41 µM (active).

And the AC50 [5]?
The AC50 was 5.92 µM (active).

And the EC50 [6]?
The EC50 was > 91.2 µM (inactive).

What about the AC50 (INS1) of the same molecule?
The AC50 was 2.4 µM (active).

What about the EC50 (cells [7]) of the same molecule?
Its EC50 is > 350 µM (not active).

What about the EC50 [8] of the same molecule?
Its EC50 is > 91.2 µM (inactive).

Which results are given for `CCc1cccc2c(C(=O)Cn3nnc(-c4ccc(OC)c(OC)c4)n3)c[nH]c12`?
AC50 [9]: 40.8 µM (active); IC50 (Estrogen receptor): 10.3 µM (active)

Which IC50 [10] does the source give for `Nc1nc2ccccc2cc1C(=O)NCc1ccc(-c2ccccc2)cc1` here?
Its IC50 is 2.01 µM (active).

What about the EC50 (cells [11]) of the same molecule?
The EC50 was > 29.9 µM (inactive).

And the IC50 (Galanin receptor type 3)?
The IC50 was 0.392 µM (active).

For `Cc1noc(C)c1S(=O)(=O)Nc1ccc2c(c1)C(=O)N([C@H](C)CO)C[C@H](C)[C@H](CN(C)Cc1ccc(C(F)(F)F)cc1)OCCCC[C@H](C)O2`, which AbsAC35 [12] is on record?
Its AbsAC35 is 76.4 µM.

For `COc1ccccc1CNC(=O)C[C@H]1C[C@@H]2c3cc(NC(=O)CN(C)C)ccc3O[C@@H]2[C@@H](CO)O1`, which AbsAC35 [12] is on record?
Its AbsAC35 is 106.52 µM.

With `COc1ccc(/C=N/Nc2cc(C)nc3c(C)cccc23)cc1` as the molecule, how does the EC50 [3] read?
Its EC50 is 1.14 µM (active).

And the EC50 [6]?
Its EC50 is > 91.2 µM (inactive).

And the IC50 [13]?
The IC50 was 68.9 µM (active).

What about the CC50 [14] of the same molecule?
The CC50 was 31.6 µM (active).

And the AC50 [15]?
The AC50 was 2.28 µM (active).

What about the EC50 [16] of the same molecule?
Its EC50 is > 60 µM (not active).

What about the EC50 [8] of the same molecule?
Its EC50 is > 91.2 µM (inactive).
